The record followed here is patent US20050053611A1, “Pharmaceutical kit comprising anti-human seminal plasma protein single chain antibody/human carboxypeptidase fusion protein and prodrug” (priority 2001, published 2005).

SMILES strings stand for the structures.

Data set [1] concerns PC cells (PC-3 and PC-3m). The data set is described as follows: colony formation assay (soft agar culture). It is filed as cell-based, human. The conditions noted are these: 2 weeks. Here is the method: 2) Colony formation assay. The colony formation assay was performed using soft agar culture method. 9 different groups were included in the assay: {circle over (1)}MTX+PC cell, {circle over (2)}MTX-α-Phe+PC cell, {circle over (3)}fusion protein+PC cell, {circle over (4)}MTX-α-Phe+CP-A+PC cell, {circle over (5)}MTX-α-Phe+fusion protein+PC cell, {circle over (6)}MTX-α-Arg+PC cell, {circle over (7)}MTX-α-Arg+CP-A+PC cell, {circle over (8)}MTX-α-Arg+fusion protein+PC cell and {circle over (9)}control group (PC cell only). All the tested prodrugs were used in three different concentrations, i.e. each of MTX, MTX-α-Phe and MTX-α-Arg was used at 0.4, 4, and 40 μg/ml. CP-A was used in a volume of 10 μl (2.5 mU/μl) and fusion protein was used in a volume of 10 μl (1 mg/ml). The density of PC cell was 200/well. The plate was incubated in a CO2 incubator at 37° C. for 2 weeks. After incubation, PC cells were fixed by a mixture of acetic acid and ethanol (1:3) for 2 h. Then microscopy was employed to calculate the percentage of colony formation.

A further data set deals with PC-3m tumor. The following applies: for histopathologic examination of tumors: after 5 weeks of treatment; for average survival time / lifespan: from beginning of treatment till natural death. The method, then:
Tumor Model: BALB/C nude mice aged 4-6 weeks and weight at 16-20 g were provided by the Experimental Animal Center of the Fourth Military Medical University (Xi'an, China) and bred in a sterile isolator. They were derma-inoculated with 0.1 ml of PC-3m suspension (1×10^7 cells). The drugs were administrated when the volume of tumor was approximately 0.5 cm^3.
1) Groups and treatments. 56 nude mice carrying tumors were randomized into 7 groups: {circle over (1)}Control group, intravenously administered with 0.5 ml of saline; {circle over (2)}Treatment Group I, intravenously administered with MTX (5 mg/kg); {circle over (3)}Treatment Group II, intravenously administered with MTX-α-Phe (5.32 mg/kg) {circle over (4)}Treatment Group III, intravenously administered with 0.5 ml of anti-γ-SmMcAb-CP-A; {circle over (5)}Treatment Group IV, intravenously administered with 0.5 ml of the fusion protein; {circle over (6)}Treatment Group V, intravenously administered with 0.5 ml of γ-SmMcAb-CP-A first and MTX-α-Phe (5.32 mg/kg) 72 h later (ADEPT-1); {circle over (7)}Treatment Group VI, intravenously administered with 0.5 ml of the fusion protein first and MTX-α-Phe (5.32 mg/kg) 72 h later (ADEPT-2).
Tumor-inhibition rate: The major diameter and minor diameter of the tumor were measured every week after the administration of drugs. The mass of tumor (m=½×major diameter×minor diameter^2) and tumor-inhibition rate (TIR) was thus calculated according the following formula. [formula]
Cell cycle of tumor cells is calculated by the formula: tc=[lg(1+G)/lg(m2/m1)]×t (G: a component of the tumor growth group; m2, m1: tumor mass of a given component of the group observed at different time points; t: interval between observations).
Survival time of the nude mice refers to the period from the beginning of the treatment till natural death.
Histopathologic observation includes gross specimen examination and microscopic examination. Samples of tumor and organs were fixed with 100 ml/L formalin. Pathologic section was stained […] underwent microscopy observation.

For data set [2], the system named is PC cells (PC-3 and PC-3m). The data set is described as follows: cell cycle kinetic analysis by flow cytometry. Type of data set: cell-based, human. The method, then:
3) Kinetic effects of the fusion protein/prodrug on the growth cycle of PC cells: PC-3 and PC-3m cells were added to several 10 ml culture flasks (10^6/ml). MTX, MTX-α-Arg, MTX-α-Phe+CP-A, MTX-α-Phe+fusion protein at different concentrations were added to the flasks, respectively. The cells were collected at 6 h, 16 h and 24 h after the addition of the tested drugs and washed twice with cold saline and then fixed with 950 ml/L ethanol. The cells were stained by routine DNA staining method. Flow cytometry was employed in the kinetic analysis (FACS Profile II; Laser rate: 15 mW; Green light filter: 488 nm).
A general note: In flow cytometry, cells or beads pass a laser one at a time.

The test system of data set [3] is PC cells (PC-3 and PC-3m). Type of data set: cell-based. The following applies: MTT, 48 h; for lethal / cytotoxic effect to PC cells: lethal curves. Here is the method: 1) MTT assay: PC-3 and PC-3m cells were seeded separately to a 96-well plate at 1×10^4 cells/ml/well. MTX, MTX-α-Phe, MTX-α-Phe+CP-A, MTX-α-Phe+fusion proteins and MTX-α-Arg, MTX-α-Arg+fusion proteins at different concentrations were also added into those wells. 3 parallel wells were set for each concentration. The cells were incubated in a CO2 incubator for 48 h. 20 μl of a solution of thiazole blue in PBS (5 mg/ml) was added to each well and incubated at 37° C. for 4 h. The culture medium and free thiazole blue were discarded and 0.1 ml of dimethylsulfoxide was added to each well. The absorbance at 405 nm was measured and mortality rate was calculated.

As to `CN(Cc1cnc2nc(N)nc(N)c2n1)c1ccc(C(=O)N[C@@H](CCC(=O)O)C(=O)O)cc1` [MTX, Methotrexate], in data set [1] (P<0.001), the “colony formation” value is reported as “none of these groups had any colony formed”. In addition, in the data set with PC-3m tumor, the “histopathologic examination of tumors” value was “a large area of necrosis in the tumors” and the “average survival time / lifespan” value amounted to 67 ± 13.8 days. In the data set on PC-3m tumor (by the 6th week), the volume of tumors entry is “significantly smaller than that in other groups”. Also, the growth of tumors result in the data set with PC-3m tumor (from the 2nd week on) was “decreased”. In addition, in the data set on PC-3m tumor (mouse, in vivo), the “living quality of mice” value is recorded as “poor living quality”, the “tumor cell growth cycle” value is reported as 2.5±0.2 and the whole blood count entry is “significantly lower than that of the ADEPT groups”. In addition, the cell proliferation index entry in data set [2] is “decreased significantly”.
Compound `CN(Cc1cnc2nc(N)nc(N)c2n1)c1ccc(C(=O)NC(CCC(=O)O)C(=O)NC(CCCNC(=N)N)C(=O)O)cc1` (stereo not drawn) [MTX-α-Arg] displayed a colony-formation rate in data set [1] of 91%. Further, in data set [3], the “lethal / cytotoxic effect to PC cells” value is “no lethal effect”.
`CN(Cc1cnc2nc(N)nc(N)c2n1)c1ccc(C(=O)N[C@@H](CCC(=O)O)C(=O)N[C@@H](Cc2ccccc2)C(=O)O)cc1` [MTX-α-Phe, methotrexate-α-phenylalanine] returned a colony-formation rate in data set [1] of 88%. The “tumor size compared with control” value in the data set with PC-3m tumor (P>0.05) is “small compared with that of the control but the difference was not significant”. Further, in the data set on PC-3m tumor, the “histopathologic examination of tumors” value was “characteristics typical of adenocarcinoma” and the “average survival time / lifespan” value was 31 ± 12.2 days. Besides, the “tumor cell growth cycle” value with PC-3m tumor (mouse, in vivo) is listed as 1.7±0.2. For the same compound, in data set [3], the “lethal / cytotoxic effect to PC cells” value is on record as “no lethal effect”. For the same compound, the IC50 – broadly, the concentration at which inhibition is half-maximal – in data set [3] (PC cells, read-out: IC50 of the prodrug) is 72 mM. Further, in data set [2], the “kinetic change of cell cycle” value is “did not show any significant kinetic change”.
